Data taken from article PMC12396409, “Screening and hit evaluation of a microbial metabolite library against the pathogenic Plasmodium falciparum and Toxoplasma gondii parasites” (International Journal for Parasitology: Drugs and Drug …, 2025).

How the values were obtained:
[1] = test system: P. falciparum 3D7 parasites; assay: P. falciparum growth inhibition assay, 1-cycle (72 h treatment), SYBR DNA staining (library screen at 2 μg/mL and dose-response); format: cell-based, Plasmodium falciparum; conditions: for Pf_72h_%Growth_Rep1: replicate 1; for Pf_72h_%Growth_Rep2: replicate 2
[2] = test system: P. falciparum 3D7 parasites; assay: P. falciparum growth inhibition assay, 2-cycle (120 h treatment), delayed-death screen and dose-response; format: cell-based, Plasmodium falciparum; conditions: for Pf_120h_%Growth_Rep1: replicate 1; for Pf_120h_%Growth_Rep2: replicate 2
[3] = test system: T. gondii RH strain (RH-Tub-eYFP) tachyzoites; assay: microbe, parasite or virus in culture; format: cell-based, Toxoplasma gondii; conditions: 72 h; for Tg_72h_%Growth_Rep1: replicate 1; for Tg_72h_%Growth_Rep2: replicate 2
[4] = T. gondii, 2 μg/mL, values are growth (% of control)
[5] = library screen at 2 μg/mL, 72 h, % growth
[6] = library screen at 2 μg/mL, 120 h, % growth
[7] = library screen at 2 μg/mL, % growth
[8] = P. falciparum, 72 h, screen at 2 μg/mL
[9] = P. falciparum, 120 h, screen at 2 μg/mL
[10] = P. falciparum 3D7, 72 h, library screen at 2 μg/mL, % growth
[11] = P. falciparum 3D7, 120 h, library screen at 2 μg/mL, % growth
[12] = T. gondii RH, library screen at 2 μg/mL, % growth
[13] = P. falciparum, 72 h, parasite screen 2 μg/mL, % growth
[14] = P. falciparum, 120 h, parasite screen 2 μg/mL, % growth
[15] = T. gondii, parasite screen 2 μg/mL, % growth
[16] = P. falciparum 3D7, 72 h, parasite screen at 2 μg/mL, % growth
[17] = P. falciparum 3D7, 120 h, parasite screen at 2 μg/mL, % growth
[18] = T. gondii, parasite screen at 2 μg/mL, % growth

For `CCCC(=O)O[C@H]1[C@H](C)O[C@@H](O[C@H]2[C@H](N(C)C)[C@@H](O)[C@H](O[C@H]3[C@@H](CC=O)C[C@@H](C)[C@@H](O)/C=C/C=C/C[C@@H](C)OC(=O)C[C@@H](OC(C)=O)[C@@H]3OC)O[C@@H]2C)C[C@@]1(C)O` [Leucomycin A4], the “1) Growth (%) at 72 h” value ([1]; P. falciparum, 2 μg/mL, 72 h) was 46.88%, the “2) Growth (%) at 120 h” value ([2]; P. falciparum, 2 μg/mL, 120 h) was 1.51% and the “3) Fold change (72 h/120 h)” value ([2]; P. falciparum, growth at 72 h / growth at 120 h, 2 μg/mL) was 31.0. The Mean ([3]; T. gondii, 2 μg/mL, mean of both replicates, growth (% of control)) was 23.43, the “Replicate 1” value [3, 4] was 19.43 and the “Replicate 2” value [3, 4] was 27.43.
`CC[C@H]1OC(=O)[C@H](C)[C@@H](O[C@H]2C[C@@](C)(OC)[C@@H](O)[C@H](C)O2)[C@H](C)[C@@H](O[C@@H]2O[C@H](C)C[C@H](N(C)C)[C@H]2O)[C@](C)(O)C[C@@H](C)C(=O)[C@H](C)[C@@H](O)[C@]1(C)O` [Erythromycin A] gave a Pf_72h_%Growth_Rep1 [1, 5] of 79.99%, a Pf_72h_%Growth_Rep2 [1, 5] of 105.49% and a Pf_120h_%Growth_Rep1 [2, 6] of 83.81%. For the same molecule, the Pf_120h_%Growth_Rep2 [2, 6] was 89.66%, the Tg_72h_%Growth_Rep1 [3, 7] was 29.44% and the Tg_72h_%Growth_Rep2 [3, 7] was 44.08%.
`CC[C@H]1OC(=O)[C@H](C)[C@@H](O[C@H]2C[C@@](C)(OC)[C@@H](O)[C@H](C)O2)[C@H](C)[C@@H](O[C@@H]2O[C@H](C)C[C@H](N(C)C)[C@H]2O)[C@@]2(C)C[C@@H](C)[C@@]3(O[C@@]1(C)[C@H](O)[C@H]3C)O2` [Anhydroerythromycin A] was tested, and the Pf_72h_%Growth_Rep1 [1, 5] was 84.47%, the Pf_72h_%Growth_Rep2 [1, 5] was 88.69% and the Pf_120h_%Growth_Rep1 [2, 6] was 87.25%. The Pf_120h_%Growth_Rep2 [2, 6] was 85.54%, the Tg_72h_%Growth_Rep1 [3, 7] was 129.02% and the Tg_72h_%Growth_Rep2 [3, 7] was 98.86%.
`CC(=O)N[C@H](COC(C)=O)[C@H](O)c1ccc([N+](=O)[O-])cc1` [Corynecin IV] gave a Pf_72h_%Growth_Rep1 [1, 8] of 87.87%, a Pf_72h_%Growth_Rep2 [1, 8] of 87.15% and a Pf_120h_%Growth_Rep1 [2, 9] of 80.18%. It also gave a Pf_120h_%Growth_Rep2 [2, 9] of 96.02%, a Tg_72h_%Growth_Rep1 ([3]; T. gondii, screen at 2 μg/mL) of 146.78% and a Tg_72h_%Growth_Rep2 ([3]; T. gondii, screen at 2 μg/mL) of 106.28%.
For `C=C[C@@H](CO)[C@H]1CCN2CCc3c([nH]c4ccccc34)[C@@H]2C1` [Anthirine], the Pf_72h_%Growth_Rep1 [1, 5] was 73.25%, the Pf_72h_%Growth_Rep2 [1, 5] was 82.22% and the Pf_120h_%Growth_Rep1 [2, 6] was 66.95%. For the same molecule, the Pf_120h_%Growth_Rep2 [2, 6] was 48.16%, the Tg_72h_%Growth_Rep1 [3, 7] was 43.71% and the Tg_72h_%Growth_Rep2 [3, 7] was 53.47%.
`Cc1cc(OC(=O)c2c(C)cc(O)cc2O)cc(O)c1C(=O)O` [BIA-L1669] showed a Pf_72h_%Growth_Rep1 [1, 10] of 74.56%, a Pf_72h_%Growth_Rep2 [1, 10] of 54.17% and a Pf_120h_%Growth_Rep1 [2, 11] of 65.54%. It also gave a Pf_120h_%Growth_Rep2 [2, 11] of 115.03%, a Tg_72h_%Growth_Rep1 [3, 12] of 166.09% and a Tg_72h_%Growth_Rep2 [3, 12] of 102.01%.
With `CC[C@H]1CCC[C@H](O)[C@@H](C)C(=O)C2=C[C@@H]3[C@@H](C=C(C)[C@@H]4C[C@@H](O[C@@H]5O[C@@H](C)[C@H](OC)[C@@H](OC)[C@H]5OC)C[C@@H]34)[C@@H]2CC(=O)O1` [Spinosyn D 17-pseudoaglycone] the Pf_72h_%Growth_Rep1 [1, 13] was 18.47%, the Pf_72h_%Growth_Rep2 [1, 13] was 12.37% and the Pf_120h_%Growth_Rep1 [2, 14] was 8.86%. The Pf_120h_%Growth_Rep2 [2, 14] was 19.25%, the Tg_72h_%Growth_Rep1 [3, 15] was 111.08% and the Tg_72h_%Growth_Rep2 [3, 15] was 100.61%.
For `CN(C)[C@@H]1C(O)=C(C(N)=O)C(=O)[C@@]2(O)C(O)=C3C(=O)c4c(O)cccc4[C@@](C)(O)[C@H]3[C@H](O)[C@@H]12` [BIA-O1336], the Pf_72h_%Growth_Rep1 [1, 16] was 45.04%, the Pf_72h_%Growth_Rep2 [1, 16] was 49.67% and the Pf_120h_%Growth_Rep1 [2, 17] was 15.40%. It also gave a Pf_120h_%Growth_Rep2 [2, 17] of 14.90%, a Tg_72h_%Growth_Rep1 [3, 18] of 105.05% and a Tg_72h_%Growth_Rep2 [3, 18] of 93.22%.
Work on `CNC1CC2OC(C)(C1OC)n1c3ccccc3c3c4c(c5c6ccccc6n2c5c31)C(=O)NC4=O` (stereo not drawn) [BIA-O1137] yielded a Pf_72h_%Growth_Rep1 [1, 16] of 5.55%, a Pf_72h_%Growth_Rep2 [1, 16] of 3.48% and a Pf_120h_%Growth_Rep1 [2, 17] of 5.90%. For the same molecule, the Pf_120h_%Growth_Rep2 [2, 17] was 15.39%, the Tg_72h_%Growth_Rep1 [3, 18] was 57.26% and the Tg_72h_%Growth_Rep2 [3, 18] was 18.54%.
Work on `O=C(O)c1nccc2c1[nH]c1ccccc12` [Carboline 1-carboxylic acid, β-] yielded a Pf_72h_%Growth_Rep1 [1, 8] of 89.67%, a Pf_72h_%Growth_Rep2 [1, 8] of 90.01% and a Pf_120h_%Growth_Rep1 [2, 9] of 166.51%. For the same molecule, the Pf_120h_%Growth_Rep2 [2, 9] was 96.73%, the Tg_72h_%Growth_Rep1 ([3]; T. gondii, screen at 2 μg/mL) was 4.34% and the Tg_72h_%Growth_Rep2 ([3]; T. gondii, screen at 2 μg/mL) was 7.03%.
